From ChEMBL document CHEMBL2413021, “Regioselective synthesis of 6-aryl-benzo[h][1,2,4]-triazolo[5,1-b]quinazoline-7,8-diones as potent antitumoral agents” (Bioorg Med Chem Lett, 2013)

Tests used:
HepG2 = assay: Cytotoxicity against human HepG2 cells after 48 hrs by MTT assay; format: functional, cell-based; conditions: HepG2, 48 h
SGC-7901 = assay: Cytotoxicity against human SGC7901 cells after 48 hrs by MTT assay; format: functional, cell-based; conditions: SGC-7901, 48 h

| SMILES | IC50 (HepG2) [µM] | IC50 (SGC-7901) [µM] |
| --- | --- | --- |
| O=C1C(=O)c2c(nc3ncnn3c2-c2ccc(Cl)cc2)-c2ccccc21 | 24.9 | 34.9 |
| O=C1C(=O)c2c(nc3ncnn3c2-c2ccc(F)cc2)-c2ccccc21 | 7.85 | 6.12 |
| O=C1C(=O)c2c(nc3ncnn3c2-c2ccc([N+](=O)[O-])cc2)-c2ccccc21 | 4.74 | 2.65 |
| COc1cc(-c2c3c(nc4ncnn24)-c2ccccc2C(=O)C3=O)cc(OC)c1OC | 17.9 | 59.2 |
| Clc1ccc(-c2c3c(nc4ncnn24)c2ccccc2c2nc4ccccc4nc23)cc1 | > 200 | > 200 |
| COc1cccc2c1C(=O)c1c(O)c3c(c(O)c1C2=O)C[C@@](O)(C(=O)CO)C[C@@H]3O[C@H]1C[C@H](N)[C@H](O)[C@H](C)O1 [DOXORUBICIN] | 1.02 | 5.72 |
| O=C1C(=O)c2c(nc3ncnn3c2-c2ccccc2)-c2ccccc21 | 3.45 | 2.16 |
| COc1ccc(-c2c3c(nc4ncnn24)-c2ccccc2C(=O)C3=O)cc1 | 1.71 | 1.31 |
| O=C1C(=O)c2c(nc3ncnn3c2-c2cccs2)-c2ccccc21 | 2.13 | 1.45 |
| Cc1ccc(-c2c3c(nc4ncnn24)-c2ccccc2C(=O)C3=O)cc1 | 1.19 | 1.71 |
| O=C1C(=O)c2c(nc3ncnn3c2-c2cccc([N+](=O)[O-])c2)-c2ccccc21 | 15.3 | 9.88 |
| O=C1C(=O)c2c(nc3ncnn3c2-c2ccc(Cl)cc2Cl)-c2ccccc21 | 2.99 | 1.83 |
